{"source": "patent US11708344B2", "about": "“Flavone derivatives for the treatment and prophylaxis of hepatitis B virus disease” (Hoffmann-La Roche Inc., priority 2018, dated 2023)", "key": {"[1]": {"system": "HBeAg (surrogate marker for cccDNA) in HepDES19 cells", "experiment": "Engineered HepDES19 primary screen assay (HBeAg ELISA)", "format": "cell-based, HBV", "settings": "Hepatitis B virus, HepDES19, 120 h, read-out: IC50 (HBeAg level, HepDES19 primary screen assay), HepDES19 cells, 5 days compound incubation, HBeAg ELISA", "method_in_brief": "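HepDES19 cells were induced by Tet withdrawal for 8 days, then treated with half-log compound dilutions (1% DMSO final) for 5 days at 37 °C. HBeAg was measured by ELISA as the cccDNA surrogate, viability by CCK-8, and IC50 from a 4-parameter logistic fit.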"}, "[2]": {"system": "cccDNA in HepDES19 cells", "experiment": "cccDNA Southern Blot assay", "format": "cell-based, HBV", "settings": "5 days' compound treatment, FIG. 1", "method": "HepDES19 cells were seeded at 4*10^6 cells per T150 in the culture medium (Dulbecco's Modified Eagle Medium: Nutrient Mixture F-12 [DMEM-F12, Gibco Cat. 11320-82], 10% Fetal Bovine Serum [FBS, Clontech Cat. 631101], 0.1 mM Non-Essential Amino Acids Solution [NEAA, Gibco Cat. 11140-050], 50 μg/mL Penicillin-Streptomycin [PS, Invitrogen Cat. 15140-163], 500 μg/mL Geneticin [G418, Invitrogen Cat. 10131-027]) in the absence of Tet for 8 days. These cells were seeded at the density of 1×10^6 cells per well in 6-well plate. At 24 hours after seeding, serial dilutions of compounds made with DMSO (Sigma, Cat. D2650) were further diluted with the same culture medium as described above before they were added to the cells to reach desired final compound concentrations and 1% DMSO concentration. After 5 days' compound treatment, the cells growing in one well from 6-well plate were re-suspended with 500 μL re-suspension buffer (50 mM tris [hydroxymethyl]amino methane pH 7.5), 10 mM ethylenediaminetetraacetic acid (EDTA), 50 μg/mL RNase A [Qiagen, Cat. 158922], 500 μL of 1.2% sodium dodecyl sulfate (SDS) was then added into the re-suspended cells to lyse the cells. After 15 minutes' incubation, 700 μL precipitation buffer (3M cesium chloride, 1M potassium acetate, 0.67M acetic acid) was added and the lysate was incubated at 4° C. for 2 h. […]"}}}
{"smiles": "O=c1cc(-c2ccc(Br)cc2OCCO[C@H]2C[C@@H](C(=O)O)C2)oc2c(Cl)cccc12", "note": "[Example C003-A, Cis-3-[2-[5-bromo-2-(8-chloro-4-oxo-chromen-2-yl)phenoxy]ethoxy]cyclobutanecarboxylic acid]", "values": [{"measurement": "IC50", "setting": "[1]", "result": 1070, "unit": "nM"}, {"measurement": "cccDNA level (Southern Blot)", "setting": "[2]", "result": "dose-dependently reduced cccDNA level"}]}
